#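 Cells were grown in 96-well plates and exposed to each compound for 48 hours at five concentrations; endpoints were interpolated linearly between bracketing concentrations, or set to the highest concentration if not reached. The concentration for 50% growth inhibition is given as GI50. Definition used: TGI = concentration required for complete inhibition of growth.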
# How the values were obtained:
# Assay in all cases: NCI-60 cell line screen, 48 h
# 786-0 renal = system: 786-0 renal
# A498 renal = system: A498 renal
# A549 NSCLC = system: A549 NSCLC
# ACHN renal = system: ACHN renal
# BT-549 breast = system: BT-549 breast
# CAKI-1 renal = system: CAKI-1 renal
# CCRF-CEM leukemia = system: CCRF-CEM leukemia
# COLO 205 colon = system: COLO 205 colon
# DU-145 prostate = system: DU-145 prostate
# EKVX NSCLC = system: EKVX NSCLC
# HCC-2998 colon = system: HCC-2998 colon
# HCT-116 colon = system: HCT-116 colon
# HCT-15 colon = system: HCT-15 colon
# HL-60(TB) leukemia = system: HL-60(TB) leukemia
# HOP-62 NSCLC = system: HOP-62 NSCLC
# HOP-92 NSCLC = system: HOP-92 NSCLC
# HS 578T breast = system: HS 578T breast
# HT29 colon = system: HT29 colon
# IGROV1 ovarian = system: IGROV1 ovarian
# K-562 leukemia = system: K-562 leukemia
# KM12 colon = system: KM12 colon
# LOX IMVI melanoma = system: LOX IMVI melanoma
# M14 melanoma = system: M14 melanoma
# MALME-3M melanoma = system: MALME-3M melanoma
# MCF7 breast = system: MCF7 breast
# MDA-MB-231 breast = system: MDA-MB-231 breast
# MDA-MB-435 = system: MDA-MB-435
# MOLT-4 leukemia = system: MOLT-4 leukemia
# NCI-H226 lung = system: NCI-H226 lung
# NCI-H23 lung = system: NCI-H23 lung
# NCI-H460 lung = system: NCI-H460 lung
# NCI-H522 lung = system: NCI-H522 lung
# NCI/ADR-RES ovarian = system: NCI/ADR-RES ovarian
# OVCAR-3 ovarian = system: OVCAR-3 ovarian
# OVCAR-4 ovarian = system: OVCAR-4 ovarian
# OVCAR-5 ovarian = system: OVCAR-5 ovarian
# OVCAR-8 ovarian = system: OVCAR-8 ovarian
# PC-3 prostate = system: PC-3 prostate
# RPMI-8226 leukemia = system: RPMI-8226 leukemia
# RXF 393 renal = system: RXF 393 renal
# SF-268 CNS = system: SF-268 CNS
# SF-295 CNS = system: SF-295 CNS
# SF-539 CNS = system: SF-539 CNS
# SK-MEL-2 melanoma = system: SK-MEL-2 melanoma
# SK-MEL-28 melanoma = system: SK-MEL-28 melanoma
# SK-MEL-5 melanoma = system: SK-MEL-5 melanoma
# SK-OV-3 ovarian = system: SK-OV-3 ovarian
# SN12C renal = system: SN12C renal
# SNB-19 CNS = system: SNB-19 CNS
# SNB-75 CNS = system: SNB-75 CNS
# SR leukemia = system: SR leukemia
# SW-620 colon = system: SW-620 colon
# T-47D breast = system: T-47D breast
# TK-10 renal = system: TK-10 renal
# U251 CNS = system: U251 CNS
# UACC-257 melanoma = system: UACC-257 melanoma
# UACC-62 melanoma = system: UACC-62 melanoma
# UO-31 renal = system: UO-31 renal
structure (smiles),measurement,setting,value
Oc1ccc(Cc2ccc(O)c(C3CC(c4ccc(Cl)cc4)=NN3)c2)cc1C1CC(c2ccc(Cl)cc2)=NN1 (configuration not stated),GI50,786-0 renal,3.53 µM
same,TGI,786-0 renal,> 40.2 µM
same,GI50,A498 renal,0.59 µM
same,TGI,A498 renal,> 34.3 µM
same,GI50,A549 NSCLC,2.79 µM
same,TGI,A549 NSCLC,> 100 µM
same,GI50,ACHN renal,3.1 µM
same,TGI,ACHN renal,> 31.8 µM
same,GI50,BT-549 breast,4.19 µM
same,TGI,BT-549 breast,23.3 µM
same,GI50,CAKI-1 renal,3.19 µM
same,TGI,CAKI-1 renal,> 58.4 µM
same,GI50,CCRF-CEM leukemia,1.94 µM
same,TGI,CCRF-CEM leukemia,> 100 µM
same,GI50,COLO 205 colon,4.17 µM
same,TGI,COLO 205 colon,23.9 µM
same,GI50,DU-145 prostate,3.22 µM
same,TGI,DU-145 prostate,> 100 µM
same,GI50,EKVX NSCLC,3.2 µM
same,TGI,EKVX NSCLC,> 100 µM
same,GI50,HCC-2998 colon,3.71 µM
same,TGI,HCC-2998 colon,> 30.8 µM
same,GI50,HCT-116 colon,1.72 µM
same,TGI,HCT-116 colon,5.59 µM
same,GI50,HCT-15 colon,2.26 µM
same,TGI,HCT-15 colon,> 35.8 µM
same,GI50,HL-60(TB) leukemia,2.73 µM
same,TGI,HL-60(TB) leukemia,> 100 µM
same,GI50,HOP-62 NSCLC,3.81 µM
same,TGI,HOP-62 NSCLC,> 45.2 µM
same,GI50,HOP-92 NSCLC,3.39 µM
same,TGI,HOP-92 NSCLC,20.9 µM
same,GI50,HS 578T breast,2.48 µM
same,TGI,HS 578T breast,24.8 µM
same,GI50,HT29 colon,6.41 µM
same,TGI,HT29 colon,> 44.6 µM
same,GI50,IGROV1 ovarian,3.69 µM
same,TGI,IGROV1 ovarian,> 72.3 µM
same,GI50,K-562 leukemia,2.51 µM
same,TGI,K-562 leukemia,> 100 µM
same,GI50,KM12 colon,3.34 µM
same,TGI,KM12 colon,> 67.8 µM
same,GI50,LOX IMVI melanoma,2.22 µM
same,TGI,LOX IMVI melanoma,12 µM
same,GI50,M14 melanoma,3.93 µM
same,TGI,M14 melanoma,> 39.3 µM
same,GI50,MALME-3M melanoma,5.03 µM
same,TGI,MALME-3M melanoma,> 100 µM
same,GI50,MCF7 breast,3.04 µM
same,TGI,MCF7 breast,> 100 µM
same,GI50,MDA-MB-231 breast,2.49 µM
same,TGI,MDA-MB-231 breast,8.94 µM
same,GI50,MDA-MB-435,3.23 µM
same,TGI,MDA-MB-435,20.2 µM
same,GI50,MOLT-4 leukemia,2.84 µM
same,TGI,MOLT-4 leukemia,> 100 µM
same,GI50,NCI-H226 lung,4.29 µM
same,TGI,NCI-H226 lung,> 44.3 µM
same,GI50,NCI-H23 lung,3.07 µM
same,TGI,NCI-H23 lung,> 37.1 µM
same,GI50,NCI-H460 lung,2.19 µM
same,TGI,NCI-H460 lung,8.87 µM
same,GI50,NCI-H522 lung,2.56 µM
same,TGI,NCI-H522 lung,9.88 µM
same,GI50,NCI/ADR-RES ovarian,2.54 µM
same,TGI,NCI/ADR-RES ovarian,> 34.5 µM
same,GI50,OVCAR-3 ovarian,2.71 µM
same,TGI,OVCAR-3 ovarian,16.5 µM
same,GI50,OVCAR-4 ovarian,2.97 µM
same,TGI,OVCAR-4 ovarian,> 44.6 µM
same,GI50,OVCAR-5 ovarian,4.45 µM
same,TGI,OVCAR-5 ovarian,> 35.7 µM
same,GI50,OVCAR-8 ovarian,2.87 µM
same,TGI,OVCAR-8 ovarian,> 42.4 µM
same,GI50,PC-3 prostate,3.67 µM
same,TGI,PC-3 prostate,> 100 µM
same,GI50,RPMI-8226 leukemia,3.89 µM
same,TGI,RPMI-8226 leukemia,> 100 µM
same,GI50,RXF 393 renal,3.48 µM
same,TGI,RXF 393 renal,> 38.8 µM
same,GI50,SF-268 CNS,3.32 µM
same,TGI,SF-268 CNS,27.2 µM
same,GI50,SF-295 CNS,2.39 µM
same,TGI,SF-295 CNS,> 42.9 µM
same,GI50,SF-539 CNS,4.69 µM
same,TGI,SF-539 CNS,> 40.2 µM
same,GI50,SK-MEL-2 melanoma,2.96 µM
same,TGI,SK-MEL-2 melanoma,10.5 µM
same,GI50,SK-MEL-28 melanoma,5.74 µM
same,TGI,SK-MEL-28 melanoma,> 49.9 µM
same,GI50,SK-MEL-5 melanoma,2.81 µM
same,TGI,SK-MEL-5 melanoma,11.5 µM
same,GI50,SK-OV-3 ovarian,3.61 µM
same,TGI,SK-OV-3 ovarian,> 100 µM
same,GI50,SN12C renal,2.79 µM
same,TGI,SN12C renal,> 37.3 µM
same,GI50,SNB-19 CNS,3.65 µM
same,TGI,SNB-19 CNS,> 43.6 µM
same,GI50,SNB-75 CNS,3.7 µM
same,TGI,SNB-75 CNS,> 82.3 µM
same,GI50,SR leukemia,2.77 µM
same,TGI,SR leukemia,> 100 µM
same,GI50,SW-620 colon,3.23 µM
same,TGI,SW-620 colon,16 µM
same,GI50,T-47D breast,3.15 µM
same,TGI,T-47D breast,> 39.7 µM
same,GI50,TK-10 renal,4.79 µM
same,TGI,TK-10 renal,> 100 µM
same,GI50,U251 CNS,2.06 µM
same,TGI,U251 CNS,33.6 µM
same,GI50,UACC-257 melanoma,3.1 µM
same,TGI,UACC-257 melanoma,19.2 µM
same,GI50,UACC-62 melanoma,3.14 µM
same,TGI,UACC-62 melanoma,13.4 µM
same,GI50,UO-31 renal,3.07 µM
same,TGI,UO-31 renal,> 100 µM
O=C(O)c1ccc(Oc2nc3ccccc3s2)cc1,TGI,786-0 renal,> 100 µM
same,TGI,A498 renal,> 100 µM
same,TGI,A549 NSCLC,> 100 µM
same,TGI,ACHN renal,> 100 µM
same,TGI,BT-549 breast,> 100 µM
same,TGI,CAKI-1 renal,> 100 µM
same,TGI,CCRF-CEM leukemia,> 100 µM
same,TGI,COLO 205 colon,> 100 µM
same,TGI,DU-145 prostate,> 100 µM
same,TGI,EKVX NSCLC,> 100 µM
same,TGI,HCT-116 colon,> 100 µM
same,TGI,HCT-15 colon,> 100 µM
same,TGI,HL-60(TB) leukemia,> 100 µM
same,TGI,HOP-62 NSCLC,> 100 µM
same,TGI,HOP-92 NSCLC,> 100 µM
same,TGI,HS 578T breast,> 100 µM
same,TGI,HT29 colon,> 100 µM
same,TGI,IGROV1 ovarian,> 100 µM
same,TGI,K-562 leukemia,> 100 µM
same,TGI,KM12 colon,> 100 µM
same,TGI,LOX IMVI melanoma,> 100 µM
same,TGI,M14 melanoma,> 100 µM
same,TGI,MALME-3M melanoma,> 100 µM
same,TGI,MCF7 breast,> 100 µM
same,TGI,MDA-MB-231 breast,> 100 µM
same,TGI,MDA-MB-435,> 100 µM
same,TGI,MOLT-4 leukemia,> 100 µM
same,TGI,NCI-H226 lung,> 100 µM
same,TGI,NCI-H23 lung,> 100 µM
same,TGI,NCI-H460 lung,> 100 µM
same,TGI,NCI-H522 lung,> 100 µM
same,TGI,NCI/ADR-RES ovarian,> 100 µM
same,TGI,OVCAR-3 ovarian,> 100 µM
same,TGI,OVCAR-4 ovarian,> 100 µM
same,TGI,OVCAR-5 ovarian,> 100 µM
same,TGI,OVCAR-8 ovarian,> 100 µM
same,TGI,PC-3 prostate,> 100 µM
same,TGI,RPMI-8226 leukemia,> 100 µM
same,TGI,RXF 393 renal,> 100 µM
same,TGI,SF-268 CNS,> 100 µM
same,TGI,SF-295 CNS,> 100 µM
same,TGI,SF-539 CNS,> 100 µM
same,TGI,SK-MEL-2 melanoma,> 100 µM
same,TGI,SK-MEL-28 melanoma,> 100 µM
same,TGI,SK-MEL-5 melanoma,> 100 µM
same,TGI,SK-OV-3 ovarian,> 100 µM
same,TGI,SN12C renal,> 100 µM
same,TGI,SNB-19 CNS,> 100 µM
same,TGI,SR leukemia,> 100 µM
same,TGI,SW-620 colon,> 100 µM
same,TGI,T-47D breast,> 100 µM
same,TGI,TK-10 renal,> 100 µM
same,TGI,U251 CNS,> 100 µM
same,TGI,UACC-257 melanoma,> 100 µM
same,TGI,UACC-62 melanoma,> 100 µM
same,TGI,UO-31 renal,> 100 µM

# — PubChem BioAssay (NCI)
